Assay results taken from patent US20240000872A1, “NOVEL BACTERIOPHAGE THAT LYSES ACINETOBACTER GENUS BACTERIA HAVING RESISTANCE TO ANTIBIOTICS” (priority 2020, published 2024).

Tested on: Acinetobacter baumannii strains
Assay: Antibiotic susceptibility test (CLSI disk diffusion test method, read per CLSI 2016); also: key: ‘S’ means susceptible; ‘I’ means intermediate; ‘R’ means resistant
Type: cell-based

Question: For `CCN1CCN(C(=O)N[C@@H](C(=O)N[C@@H]2C(=O)N3[C@@H]2SC(C)(C)[C@@H]3C(=O)O)c2ccccc2)C(=O)C1=O` [Piperacillin, piperacillin], which antibiotic susceptibility class (host strain YMC14/01/C29) is on record?
Answer: R

Question: What about the antibiotic susceptibility class (host strain YMC14/01/IP122) of the same molecule?
Answer: R

Question: And the antibiotic susceptibility class (host strain YMC14/01/L8)?
Answer: R

Question: What about the antibiotic susceptibility class (host strain YMC14/01/P31) of the same molecule?
Answer: R

Question: And the antibiotic susceptibility class (host strain YMC14/01/P117)?
Answer: R

Question: And the antibiotic susceptibility class (host strain YMC14/01/P224)?
Answer: R

Question: What about the antibiotic susceptibility class (host strain YMC14/01/P727) of the same molecule?
Answer: R

Question: What about the antibiotic susceptibility class (host strain YMC14/01/P728) of the same molecule?
Answer: R

Question: And the antibiotic susceptibility class (host strain YMC14/01/R130)?
Answer: R

Question: What about the antibiotic susceptibility class (host strain YMC14/01/R160) of the same molecule?
Answer: R

Question: What about the antibiotic susceptibility class (host strain YMC14/01/R198) of the same molecule?
Answer: R

Question: What about the antibiotic susceptibility class (host strain YMC14/01/R257) of the same molecule?
Answer: R

Question: What about the antibiotic susceptibility class (host strain YMC14/01/R270) of the same molecule?
Answer: R

Question: What about the antibiotic susceptibility class (host strain YMC14/01/R324) of the same molecule?
Answer: R

Question: What about the antibiotic susceptibility class (host strain YMC14/01/R443) of the same molecule?
Answer: R

Question: And the antibiotic susceptibility class (host strain YMC14/01/R451)?
Answer: R

Question: What about the antibiotic susceptibility class (host strain YMC14/01/R560) of the same molecule?
Answer: R

Question: And the antibiotic susceptibility class (host strain YMC14/01/R617)?
Answer: R

Question: And the antibiotic susceptibility class (host strain YMC14/01/R671)?
Answer: R

Question: And the antibiotic susceptibility class (host strain YMC14/01/R732)?
Answer: R

Question: And the antibiotic susceptibility class (host strain YMC14/01/R767)?
Answer: R

Question: What about the antibiotic susceptibility class (host strain YMC14/01/R904) of the same molecule?
Answer: R

Question: And the antibiotic susceptibility class (host strain YMC14/01/R905)?
Answer: R

Question: What about the antibiotic susceptibility class (host strain YMC14/01/R921) of the same molecule?
Answer: R

Question: And the antibiotic susceptibility class (host strain YMC14/01/R941)?
Answer: R

Question: And the antibiotic susceptibility class (host strain YMC14/01/R958)?
Answer: R

Question: And the antibiotic susceptibility class (host strain YMC14/01/R1006)?
Answer: R

Question: What about the antibiotic susceptibility class (host strain YMC14/01/R1199) of the same molecule?
Answer: R

Question: And the antibiotic susceptibility class (host strain YMC14/01/R1659)?
Answer: R

Question: What about the antibiotic susceptibility class (host strain YMC14/01/R1722) of the same molecule?
Answer: R

Question: And the antibiotic susceptibility class (host strain YMC14/01/R1752)?
Answer: R

Question: And the antibiotic susceptibility class (host strain YMC14/01/R2429)?
Answer: R

Question: And the antibiotic susceptibility class (host strain YMC14/01/R2572)?
Answer: R

Question: What about the antibiotic susceptibility class (host strain YMC14/01/R2855) of the same molecule?
Answer: R

Question: And the antibiotic susceptibility class (host strain YMC14/01/R2945)?
Answer: R

Question: What about the antibiotic susceptibility class (host strain YMC14/01/R3007) of the same molecule?
Answer: R

Question: And the antibiotic susceptibility class (host strain YMC14/01/R3129)?
Answer: R

Question: What about the antibiotic susceptibility class (host strain YMC14/01/R3317) of the same molecule?
Answer: R

Question: And the antibiotic susceptibility class (host strain YMC14/01/R3474)?
Answer: R

Question: And the antibiotic susceptibility class (host strain YMC14/01/R3574)?
Answer: R

Question: What about the antibiotic susceptibility class (host strain YMC14/01/U313) of the same molecule?
Answer: R

Question: What about the antibiotic susceptibility class (host strain YMC14/01/U318) of the same molecule?
Answer: R

Question: What about the antibiotic susceptibility class (host strain YMC14/02/L18) of the same molecule?
Answer: R

Question: And the antibiotic susceptibility class (host strain YMC14/02/P47)?
Answer: R

Question: What about the antibiotic susceptibility class (host strain YMC14/02/R1860) of the same molecule?
Answer: R

Question: What about the antibiotic susceptibility class (host strain YMC14/02/R2417) of the same molecule?
Answer: R

Question: And the antibiotic susceptibility class (host strain YMC14/02/R2599)?
Answer: R

Question: And the antibiotic susceptibility class (host strain YMC14/02/R2668)?
Answer: R

Question: What about the antibiotic susceptibility class (host strain YMC14/02/R2758) of the same molecule?
Answer: R

Question: And the antibiotic susceptibility class (host strain YMC14/02/R2781)?
Answer: R

Question: And the antibiotic susceptibility class (host strain YMC14/02/R3106)?
Answer: R

Question: What about the antibiotic susceptibility class (host strain YMC14/02/R3419) of the same molecule?
Answer: R

Question: What about the antibiotic susceptibility class (host strain YMC14/02/U1607) of the same molecule?
Answer: R

Question: What about the antibiotic susceptibility class (host strain YMC14/03/L9) of the same molecule?
Answer: R

Question: And the antibiotic susceptibility class (host strain YMC14/03/P471)?
Answer: R

Question: What about the antibiotic susceptibility class (host strain YMC14/03/R122) of the same molecule?
Answer: R

Question: What about the antibiotic susceptibility class (host strain YMC14/03/R217) of the same molecule?
Answer: R

Question: And the antibiotic susceptibility class (host strain YMC14/03/R380)?
Answer: R

Question: What about the antibiotic susceptibility class (host strain YMC14/03/R618) of the same molecule?
Answer: R

Question: And the antibiotic susceptibility class (host strain YMC14/03/R2144)?
Answer: R

Question: What about the antibiotic susceptibility class (host strain YMC14/03/U4616) of the same molecule?
Answer: R

Question: What about the antibiotic susceptibility class (host strain YMC14/04/R1078) of the same molecule?
Answer: R

Question: And the antibiotic susceptibility class (host strain YMC14/04/R1080)?
Answer: R

Question: And the “susceptibility category (S/I/R)” value (host strain YMC14/06/R2359)?
Answer: R

Question: And the “susceptibility category (S/I/R)” value (host strain YMC14/08/R1169)?
Answer: R

Question: What about the “susceptibility category (S/I/R)” value (host strain YMC14/08/T90) of the same molecule?
Answer: R

Question: And the “susceptibility category (S/I/R)” value (host strain YMC15/02/R436)?
Answer: R

Question: And the “susceptibility category (S/I/R)” value (host strain YMC15/02/T28)?
Answer: R

Question: And the “susceptibility category (S/I/R)” value (host strain YMC15/03/R1604)?
Answer: R

Question: What about the “susceptibility category (S/I/R)” value (host strain YMC15/09/R1869) of the same molecule?
Answer: R

Question: And the “susceptibility category (S/I/R)” value (host strain YMC16/01/P11)?
Answer: R

Question: And the “susceptibility category (S/I/R)” value (host strain YMC16/01/R123)?
Answer: R

Question: And the “susceptibility category (S/I/R)” value (host strain YMC16/01/R198)?
Answer: R

Question: And the “susceptibility category (S/I/R)” value (host strain YMC16/01/R353)?
Answer: R

Question: What about the “susceptibility category (S/I/R)” value (host strain YMC16/01/R380) of the same molecule?
Answer: R

Question: And the “susceptibility category (S/I/R)” value (host strain YMC16/01/R397)?
Answer: R

Question: What about the “susceptibility category (S/I/R)” value (host strain YMC16/01/R405) of the same molecule?
Answer: R

Question: And the “susceptibility category (S/I/R)” value (host strain YMC16/03/R4461)?
Answer: R

Question: And the “susceptibility category (S/I/R)” value (host strain YMC16/05/R2210)?
Answer: R

Question: What about the “susceptibility category (S/I/R)” value (host strain YMC16/07/R2512) of the same molecule?
Answer: R

Question: And the “susceptibility category (S/I/R)” value (host strain YMC16/09/R2471)?
Answer: R

Question: What about the “susceptibility category (S/I/R)” value (host strain YMC16/10/R2537) of the same molecule?
Answer: R

Question: And the “susceptibility category (S/I/R)” value (host strain YMC16/12/B11422)?
Answer: R

Question: And the “susceptibility category (S/I/R)” value (host strain YMC16/12/B11449)?
Answer: R

Question: And the “susceptibility category (S/I/R)” value (host strain YMC16/12/B13325)?
Answer: R

Question: And the “susceptibility category (S/I/R)” value (host strain YMC16/12/P503)?
Answer: R

Question: And the “susceptibility category (S/I/R)” value (host strain YMC16/12/R4637)?
Answer: R

Question: And the “susceptibility category (S/I/R)” value (host strain YMC17/01/B8053)?
Answer: R

Question: And the “susceptibility category (S/I/R)” value (host strain YMC17/01/B10087)?
Answer: R

Question: And the “susceptibility category (S/I/R)” value (host strain YMC17/01/B12075)?
Answer: R

Question: And the “susceptibility category (S/I/R)” value (host strain YMC17/01/B13454)?
Answer: R

Question: And the “susceptibility category (S/I/R)” value (host strain YMC17/01/P518)?
Answer: R

Question: And the “susceptibility category (S/I/R)” value (host strain YMC17/01/R2812)?
Answer: R

Question: What about the “susceptibility category (S/I/R)” value (host strain YMC17/02/B14) of the same molecule?
Answer: R

Question: And the “susceptibility category (S/I/R)” value (host strain YMC17/02/B87)?
Answer: R

Question: What about the “susceptibility category (S/I/R)” value (host strain YMC17/02/B721) of the same molecule?
Answer: R

Question: What about the “susceptibility category (S/I/R)” value (host strain YMC17/02/B4039) of the same molecule?
Answer: R

Question: And the “susceptibility category (S/I/R)” value (host strain YMC17/02/B4520)?
Answer: R

Question: And the “susceptibility category (S/I/R)” value (host strain YMC17/02/B4864)?
Answer: S

Question: And the “susceptibility category (S/I/R)” value (host strain YMC17/02/B8414)?
Answer: R

Question: What about the “susceptibility category (S/I/R)” value (host strain YMC17/02/P523) of the same molecule?
Answer: R

Question: What about the “susceptibility category (S/I/R)” value (host strain YMC17/02/R541) of the same molecule?
Answer: R

Question: And the “susceptibility category (S/I/R)” value (host strain YMC17/02/R2392)?
Answer: R

Question: And the “susceptibility category (S/I/R)” value (host strain YMC17/03/B4730)?
Answer: R

Question: And the “susceptibility category (S/I/R)” value (host strain YMC17/03/B5000)?
Answer: R

Question: What about the “susceptibility category (S/I/R)” value (host strain YMC17/03/P971) of the same molecule?
Answer: R

Question: What about the “susceptibility category (S/I/R)” value (host strain YMC17/03/R348) of the same molecule?
Answer: R

Question: What about the “susceptibility category (S/I/R)” value (host strain YMC17/03/R585) of the same molecule?
Answer: R

Question: And the “susceptibility category (S/I/R)” value (host strain YMC17/03/R1888)?
Answer: R

Question: And the “susceptibility category (S/I/R)” value (host strain YMC17/03/R3279)?
Answer: R

Question: What about the “susceptibility category (S/I/R)” value (host strain YMC17/03/R4077) of the same molecule?
Answer: R

Question: What about the “susceptibility category (S/I/R)” value (host strain YMC17/03/R4607) of the same molecule?
Answer: R

Question: What about the “susceptibility category (S/I/R)” value (host strain YMC17/04/R488) of the same molecule?
Answer: R

Question: What about the “susceptibility category (S/I/R)” value (host strain YMC17/04/R640) of the same molecule?
Answer: R

Question: What about the “susceptibility category (S/I/R)” value (host strain YMC/17/05/R1095) of the same molecule?
Answer: R
